This passage reports EC50 results from BindingDB's records for doi:10.1016/j.bmcl.2007.06.017 (Tanabe Research Laboratories Usa, 2007).

What is called EC50 is the concentration at which the effect is half-maximal. A high value points to lower potency in that assay.

The target in the assay is T1, Oxysterols receptor LXR-beta (Homo sapiens, UniProt P55055).
T1 sequence (P55055 whole entry): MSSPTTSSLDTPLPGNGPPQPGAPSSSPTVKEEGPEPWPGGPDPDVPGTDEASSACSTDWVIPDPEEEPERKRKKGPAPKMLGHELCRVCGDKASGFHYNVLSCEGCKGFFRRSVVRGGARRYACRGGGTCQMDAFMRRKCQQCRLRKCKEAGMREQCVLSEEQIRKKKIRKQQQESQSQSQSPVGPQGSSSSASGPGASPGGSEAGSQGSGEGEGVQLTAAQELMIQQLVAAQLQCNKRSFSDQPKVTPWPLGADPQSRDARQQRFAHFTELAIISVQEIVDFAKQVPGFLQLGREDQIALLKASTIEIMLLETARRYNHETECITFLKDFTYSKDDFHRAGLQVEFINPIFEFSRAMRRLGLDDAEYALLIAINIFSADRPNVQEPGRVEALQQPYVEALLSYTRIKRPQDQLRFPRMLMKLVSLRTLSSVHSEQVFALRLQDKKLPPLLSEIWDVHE
In words: HTRF Cofactor Peptide Recruitment Assay. As to conditions: pH 7.5; 22 °C. As to the method:
Polyhistidine-tagged human LXR ligand-binding domain was mixed with the test compound, biotin-SRC1 peptide, streptavidin-allophycocyanin, and europium labeled anti-polyhistidine antibody in reaction buffer, and the mixture was incubated in a 384-well assay plate format.
A general note: Time-resolved FRET reads energy transfer from a long-lived donor to a nearby acceptor.

Turning to `CC(C)(C)OC(=O)n1c(-c2ccc(CCNS(=O)(=O)c3ccc(-c4ccccn4)s3)cc2)cc2ccccc21` [tert-butyl 2-[4-(2-{[5-(pyridin-2-yl)thiophene-2-]sulfonamido}ethyl)phenyl]-1H-indole-1-carboxylate], the concentration for a half-maximal effect (EC50) amounted to 230 nM.
